These results are taken from patent publication US12559464B2, “Quinazolinone dione compounds and uses thereof” (Edgewise Therapeutics, Inc., priority 2023, dated 2026).

Assay [1] relates to myosin ATPase, Rabbit Psoas myofibrils. Nature of the assay: Myofibril ATPase assay, rabbit psoas (skeletal) myofibrils. Type of assay: biochemical. The conditions noted are these: Rabbit Psoas Prep pCa 25 GEOM_MEAN; for Rabbit Psoas Y125 value (marked #): concentration required to increase myosin ATP-ase activity by 25%; for Rabbit Psoas EC25 (Y75 value): concentration required to reduce myosin ATP-ase activity by 25%.

Assay [2] has as its system myosin ATPase, Porcine Atria myofibrils. Nature of the assay: Myofibril ATPase assay, porcine atria myofibrils. The conditions noted are these: Porcine Atria Prep pCa 25 GEOM_MEAN; for Porcine Atria EC25 (Y75 value): concentration required to reduce myosin ATP-ase activity by 25%. Type of assay: biochemical.
The target of assay [3] is T1, myosin ATPase, Porcine Ventricle myofibrils (Sus scrofa, UniProt P79293).
T1 construct: Myofibrils from porcine cardiac muscle was isolated from the left ventricle of Yucatan minipigs; tissue Exemplar Genetics; host or cells: left ventricle of Yucatan minipigs, myofibrils
T1 sequence (P79293 whole entry): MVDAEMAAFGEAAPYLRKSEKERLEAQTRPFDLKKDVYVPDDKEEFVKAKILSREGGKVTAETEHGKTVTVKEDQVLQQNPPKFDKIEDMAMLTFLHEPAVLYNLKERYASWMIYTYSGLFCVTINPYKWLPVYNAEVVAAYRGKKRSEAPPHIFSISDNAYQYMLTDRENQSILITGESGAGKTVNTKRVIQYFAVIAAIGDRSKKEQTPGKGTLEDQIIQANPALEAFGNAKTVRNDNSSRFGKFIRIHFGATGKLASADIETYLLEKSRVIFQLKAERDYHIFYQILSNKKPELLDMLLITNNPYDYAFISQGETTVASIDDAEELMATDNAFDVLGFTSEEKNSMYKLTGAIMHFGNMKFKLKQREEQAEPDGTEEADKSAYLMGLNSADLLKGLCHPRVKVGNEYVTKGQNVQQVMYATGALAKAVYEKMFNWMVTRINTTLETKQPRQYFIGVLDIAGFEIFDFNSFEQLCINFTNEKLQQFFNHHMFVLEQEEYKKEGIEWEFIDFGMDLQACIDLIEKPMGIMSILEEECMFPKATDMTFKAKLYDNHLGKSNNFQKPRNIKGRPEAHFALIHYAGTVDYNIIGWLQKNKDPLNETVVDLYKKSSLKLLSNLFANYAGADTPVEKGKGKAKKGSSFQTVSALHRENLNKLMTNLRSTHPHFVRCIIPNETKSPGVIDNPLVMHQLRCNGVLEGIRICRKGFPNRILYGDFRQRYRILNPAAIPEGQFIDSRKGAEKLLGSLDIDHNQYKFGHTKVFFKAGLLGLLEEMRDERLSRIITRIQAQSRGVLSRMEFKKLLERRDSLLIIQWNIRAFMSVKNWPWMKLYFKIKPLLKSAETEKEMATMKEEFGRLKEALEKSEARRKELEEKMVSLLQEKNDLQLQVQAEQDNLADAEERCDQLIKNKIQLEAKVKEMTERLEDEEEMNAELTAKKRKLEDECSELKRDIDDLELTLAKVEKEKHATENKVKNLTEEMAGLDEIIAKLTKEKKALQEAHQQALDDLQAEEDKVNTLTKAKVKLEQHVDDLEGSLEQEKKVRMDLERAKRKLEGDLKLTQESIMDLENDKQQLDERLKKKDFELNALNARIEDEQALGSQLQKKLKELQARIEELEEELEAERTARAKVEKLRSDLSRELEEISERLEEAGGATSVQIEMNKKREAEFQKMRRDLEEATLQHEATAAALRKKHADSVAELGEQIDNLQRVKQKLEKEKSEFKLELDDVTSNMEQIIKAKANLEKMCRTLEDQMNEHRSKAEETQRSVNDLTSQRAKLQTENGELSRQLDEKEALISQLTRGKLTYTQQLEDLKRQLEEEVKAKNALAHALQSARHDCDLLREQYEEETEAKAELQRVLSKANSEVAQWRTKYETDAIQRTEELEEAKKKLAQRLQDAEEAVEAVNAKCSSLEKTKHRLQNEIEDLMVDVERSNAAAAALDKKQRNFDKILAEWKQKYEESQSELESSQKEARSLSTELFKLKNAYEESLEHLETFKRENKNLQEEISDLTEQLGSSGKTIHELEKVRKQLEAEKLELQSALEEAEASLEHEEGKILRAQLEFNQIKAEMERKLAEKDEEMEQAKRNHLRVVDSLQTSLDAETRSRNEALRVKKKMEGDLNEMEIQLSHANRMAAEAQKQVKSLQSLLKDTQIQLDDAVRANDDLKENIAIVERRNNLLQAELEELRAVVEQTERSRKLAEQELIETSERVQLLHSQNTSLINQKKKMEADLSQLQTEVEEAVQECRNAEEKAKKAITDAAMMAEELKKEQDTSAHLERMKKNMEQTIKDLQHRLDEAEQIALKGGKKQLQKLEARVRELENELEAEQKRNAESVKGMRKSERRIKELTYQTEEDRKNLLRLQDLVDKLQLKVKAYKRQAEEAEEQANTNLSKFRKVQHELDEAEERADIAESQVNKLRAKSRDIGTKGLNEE
Nature of the assay: Myofibril ATPase assay, porcine ventricle myofibrils. Type of assay: biochemical, porcine (Yucatan minipigs). The settings on record: concentration required to reduce myosin ATP-ase activity by 25%; Porcine Ventricle Prep pCa 25 GEOM_MEAN. Summed up:
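Myofibrils from Yucatan minipig left ventricle; ADP production coupled via PK-LDH to NADH loss, read kinetically at 340 nm every 1.5–2 min for 75 min in PIPES/MgCl2 pH 7.0 buffer. Slopes normalized to vehicle and fit to 4-parameter logistic; values are concentrations giving 75% (inhibition) or 125% (activation) of vehicle activity.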

For `C[C@H](NC(=O)C(Cc1ccccc1)n1c(=O)[nH]c2ccccc2c1=O)c1ccc(F)cc1F` (single isomer, unassigned) [Compound 504], the “Rabbit Psoas Y125 value (marked #)” value in assay [1] is listed as 3.28^#^ μM. Besides, the “Porcine Atria EC25 (Y75 value)” value in assay [2] stood at 20.67 µM. Also, the “Porcine Ventricle EC25 (Y75 value)” value in assay [3] was 43.467 µM.
Turning to `C[C@H](NC(=O)C(c1cccnc1)n1c(=O)[nH]c2ccccc2c1=O)c1ccc(F)cc1F` (single isomer, unassigned) [Compound 508], the “Rabbit Psoas EC25 (Y75 value)” value in assay [1] was 100 µM. Besides, the “Porcine Atria EC25 (Y75 value)” value in assay [2] is 100 µM. Also, the “Porcine Ventricle EC25 (Y75 value)” value in assay [3] was found to be 100 µM.
As for `CCC(C(=O)N[C@@H](C)c1ccc(F)cc1F)n1c(=O)[nH]c2ccccc2c1=O` (single isomer, unassigned) [Compound 509], in assay [1], the “Rabbit Psoas EC25 (Y75 value)” value was determined as 100 µM. For the same molecule, the “Porcine Atria EC25 (Y75 value)” value in assay [2] was 100 µM. For the same molecule, in assay [3], the “Porcine Ventricle EC25 (Y75 value)” value was 100 µM.
For the molecule `C[C@H](NC(=O)C(c1ccccc1)n1c(=O)[nH]c2ccccc2c1=O)c1ccc(F)cc1F` (single isomer, unassigned) [Compound 510], the “Rabbit Psoas EC25 (Y75 value)” value in assay [1] is 100 µM. In addition, in assay [2], the “Porcine Atria EC25 (Y75 value)” value was determined as 100 µM. Also, the “Porcine Ventricle EC25 (Y75 value)” value in assay [3] came out at 100 µM.
With `C[C@H](NC(=O)C(CO)n1c(=O)[nH]c2ccccc2c1=O)c1ccc(F)cc1F` (single isomer, unassigned) [Compound 511], the “Rabbit Psoas EC25 (Y75 value)” value in assay [1] amounted to 35.849 µM. The “Porcine Atria EC25 (Y75 value)” value in assay [2] amounted to 2.118 µM. Also, in assay [3], the “Porcine Ventricle EC25 (Y75 value)” value turned out to be 100 µM.
Consider `CC(C)CC(C(=O)N[C@@H](C)c1ccc(F)cc1F)n1c(=O)[nH]c2ccccc2c1=O` (single isomer, unassigned) [Compound 512], for which the “Rabbit Psoas Y125 value (marked #)” value in assay [1] was 23.575^#^ μM. For the same molecule, the “Porcine Atria Y125 value (marked #)” value in assay [2] (concentration required to increase myosin ATP-ase activity by 25%) is 30.14^# μM. For the same molecule, the “Porcine Ventricle EC25 (Y75 value)” value in assay [3] was determined as 100 µM.
For `CC(C)C(C(=O)N[C@@H](C)c1ccc(F)cc1F)n1c(=O)[nH]c2ccccc2c1=O` (single isomer, unassigned) [Compound 513], in assay [1], the “Rabbit Psoas EC25 (Y75 value)” value turned out to be 100 µM. The “Porcine Atria EC25 (Y75 value)” value in assay [2] came to 100 µM. Moreover, the “Porcine Ventricle EC25 (Y75 value)” value in assay [3] amounted to 100 µM.
In the case of `C[C@H](NC(=O)Cn1c(=O)[nH]c2ccccc2c1=O)c1cc(C(F)(F)F)cc(C(F)(F)F)c1` (single isomer, unassigned) [Compound 517], the “Rabbit Psoas EC25 (Y75 value)” value in assay [1] worked out at 100 µM. Further, the “Porcine Atria EC25 (Y75 value)” value in assay [2] came to 100 µM. Moreover, in assay [3], the “Porcine Ventricle EC25 (Y75 value)” value is 100 µM.
As for `C[C@@H](NC(=O)Cn1c(=O)[nH]c2ccccc2c1=O)c1ccc(Cl)cc1` (single isomer, unassigned) [Compound 526], the “Rabbit Psoas EC25 (Y75 value)” value in assay [1] was found to be 100 µM. Moreover, in assay [2], the “Porcine Atria EC25 (Y75 value)” value was determined as 100 µM. In addition, in assay [3], the “Porcine Ventricle EC25 (Y75 value)” value came to 100 µM.
`COc1ccc([C@@H](C)NC(=O)Cn2c(=O)[nH]c3ccccc3c2=O)cc1` (single isomer, unassigned) [Compound 528]: in assay [1], the “Rabbit Psoas EC25 (Y75 value)” value was found to be 100 µM. In assay [2], the “Porcine Atria EC25 (Y75 value)” value turned out to be 100 µM. The “Porcine Ventricle EC25 (Y75 value)” value in assay [3] came out at 100 µM.
Take `COc1ccc([C@H](C)NC(=O)Cn2c(=O)[nH]c3ccccc3c2=O)cc1` (single isomer, unassigned) [Compound 529]: in assay [1], the “Rabbit Psoas EC25 (Y75 value)” value was found to be 100 µM. In assay [2], the “Porcine Atria EC25 (Y75 value)” value turned out to be 100 µM. Besides, the “Porcine Ventricle EC25 (Y75 value)” value in assay [3] worked out at 100 µM.
Consider `C[C@H](NC(=O)Cn1c(=O)[nH]c2ccccc2c1=O)c1ccc(Cl)cc1` (single isomer, unassigned) [Compound 530], for which the “Rabbit Psoas EC25 (Y75 value)” value in assay [1] is 3.24 µM. For the same molecule, the “Porcine Atria EC25 (Y75 value)” value in assay [2] was 0.445 µM. The “Porcine Ventricle EC25 (Y75 value)” value in assay [3] came to 4.63 µM.
On the same counts, the results for `C[C@@H](NC(=O)Cn1c(=O)[nH]c2ccccc2c1=O)c1ccccc1` (single isomer, unassigned) [Compound 533] are 100 µM, 100 µM and 100 µM.
In the case of `C[C@H](NC(=O)Cn1c(=O)[nH]c2ccccc2c1=O)c1ccccc1` (single isomer, unassigned) [Compound 534], the “Rabbit Psoas EC25 (Y75 value)” value in assay [1] was found to be 100 µM. For the same molecule, the “Porcine Atria EC25 (Y75 value)” value in assay [2] is 100 µM. Also, the “Porcine Ventricle EC25 (Y75 value)” value in assay [3] was determined as 100 µM.
Turning to `Cc1c(F)ccc2[nH]c(=O)n(CC(=O)N[C@@H]3COc4cc(C#N)cnc43)c(=O)c12` (single isomer, unassigned) [Compound 701], in assay [1], the “Rabbit Psoas EC25 (Y75 value)” value stood at 0.023 µM. Also, the “Porcine Atria EC25 (Y75 value)” value in assay [2] turned out to be 0.07 µM. The “Porcine Ventricle EC25 (Y75 value)” value in assay [3] stood at 0.075 µM.
The corresponding values for `Cc1c(F)ccc2[nH]c(=O)n(CC(=O)N[C@H]3COc4cc(C#N)cnc43)c(=O)c12` (single isomer, unassigned) [Compound 702] are 4.019 µM, 3.03 µM and 7.299 µM.
On the same counts, the results for `Cc1c(F)ccc2[nH]c(=O)n(CC(=O)N[C@H](C)c3ncc(C#N)cn3)c(=O)c12` (single isomer, unassigned) [Compound 3005] are 2.34 µM, 2.78 µM and 11.35 µM.
On the same counts, the results for `Cc1c(F)ccc2[nH]c(=O)n(CC(=O)N[C@H](C)c3ccc(C#N)cn3)c(=O)c12` (single isomer, unassigned) [Compound 3009] are 0.06 µM, 0.10 µM and 0.25 µM.
Regarding `Cc1c(F)ccc2[nH]c(=O)n(CC(=O)N[C@@H](C)c3ccc(C#N)cn3)c(=O)c12` (single isomer, unassigned) [Compound 3010], the “Rabbit Psoas EC25 (Y75 value)” value in assay [1] amounted to 1.59 µM. Further, in assay [2], the “Porcine Atria EC25 (Y75 value)” value is 1.97 µM. The “Porcine Ventricle EC25 (Y75 value)” value in assay [3] is 1.90 µM.
The corresponding values for `C[C@@H](NC(=O)C1(n2c(=O)[nH]c3ccc(F)c(F)c3c2=O)CC1)c1ncc(C#N)cc1F` (single isomer, unassigned) [Compound 3011] are 4.77 µM, 0.42 µM and 13.07 µM.
On the same counts, the results for `C[C@H](NC(=O)C1(n2c(=O)[nH]c3ccc(F)c(F)c3c2=O)CC1)c1ncc(C#N)cc1F` (single isomer, unassigned) [Compound 3013] are 0.40 µM, 0.19 µM and 1.04 µM.
On the same counts, the results for `C[C@@H](NC(=O)C1(n2c(=O)[nH]c3cccc(C#N)c3c2=O)CC1)c1ncc(C#N)cc1F` (single isomer, unassigned) [Compound 3014] are 100.00 µM, 100.00 µM and 100.00 µM.
Consider `C[C@H](NC(=O)C1(n2c(=O)[nH]c3cccc(C#N)c3c2=O)CC1)c1ncc(C#N)cc1F` (single isomer, unassigned) [Compound 3015], for which the “Rabbit Psoas EC25 (Y75 value)” value in assay [1] came to 0.89 µM. Also, the “Porcine Atria EC25 (Y75 value)” value in assay [2] came out at 1.89 µM. Further, in assay [3], the “Porcine Ventricle EC25 (Y75 value)” value was 10.96 µM.
